The source of these data is US8039486B2, “Indole, azaindole and related heterocyclic N-substituted piperazine derivatives” (priority 2003, dated 2011).

pEC50: −log10 of the molar value.

This test concerns HIV-1 single-round infectious reporter virus. Nature of the test: Single-round infectious HIV-1 luciferase reporter virus infection of HeLa CD4 cells. The test is classed as cell-based. The following applies: Human immunodeficiency virus 1, HeLa, 72 h, read-out: EC50 Group from Table 1. The method, then: • Virus production—Human embryonic Kidney cell line, 293, was propagated in Dulbecco's Modified Eagle Medium (Invitrogen, Carlsbad, Calif.) containing 10% fetal Bovine serum (FBS, Sigma, St. Louis, Mo.). • Virus infection—Human epithelial cell line, HeLa, expressing the HIV-1 receptor CD4 was propagated in Dulbecco's Modified Eagle Medium (Invitrogen, Carlsbad, Calif.) containing 10% fetal Bovine serum (FBS, Sigma, St. Louis, Mo.) and supplemented with 0.2 mg/mL Geneticin (Invitrogen, Carlsbad, Calif.). Virus-Single-round infectious reporter virus was produced by co-transfecting human embryonic Kidney 293 cells with an HIV-1 envelope DNA expression vector and a proviral cDNA containing an envelope deletion mutation and the luciferase reporter gene inserted in place of HIV-1 nef sequences (Chen et al, Ref 41). Transfections were performed using lipofectAMINE PLUS reagent as described by the manufacturer (Invitrogen, Carlsbad, Calif.). Experiment • 1. HeLa CD4 cells were plated in 96 well plates at a cell density of 1×10^4 cells per well in 100 μl Dulbecco's Modified Eagle Medium containing 10% fetal Bovine serum and incubated overnight. • 2. Compound was added in a 2 μl dimethylsulfoxide solution, so that the final assay concentration would be ≦10 μM. • 3. 100 μl of single-round infectious reporter virus in Dulbecco's Modified Eagle Medium was then added to the plated cells and compound at an approximate multiplicity of infection (MOI) of 0.01, resulting in a final volume of 200 μl per well. • 4. Virally-infected cells were incubated at 37 degrees Celsius, in a CO2 incubator, and harvested 72 h after infection. • 5. Viral infection was monitored by measuring luciferase expression from viral DNA in the infected cells using a luciferase reporter gene assay kit, as described by the manufacturer (Roche Molecular Biochemicals, Indianapolis, Ind.). Infected cell supernatants were removed and 50 μl of lysis buffer was added per well. After 15 minutes, 50 μl of freshly-reconstituted luciferase assay reagent was added per well. Luciferase activity was then quantified by measuring luminescence using a Wallac microbeta scintillation counter. • 6. The percent inhibition for each compound was calculated by quantifying the level of luciferase expression in cells infected in the presence of each compound as a percentage of that observed for cells infected in the absence of compound and subtracting such a determined value from 100. • 7. An EC50 provides a method for comparing the antiviral potency of the compounds of this invention. The effective concentration for fifty percent inhibition (EC50) was calculated with the Microsoft Excel Xlfit curve fitting software. For each compound, curves were generated from percent inhibition calculated at 10 different concentrations by using a four paramenter logistic model (model 205). Table 1 is the key for the data in Table 2. Results
As a reminder, the pEC50 is the EC50 on a negative log10 scale, so that one unit is a factor of ten. As to `O=C(C(=O)N1CCN(c2ncnc3ccccc23)CC1)c1c[nH]c2c(-c3cc[nH]n3)ncc(F)c12` [Example 94], the pEC50 is > 6.00.

For the compound `O=C(C(=O)N1CCN(c2ncnc3ccccc23)CC1)c1c[nH]c2c(-c3cncnc3)ncc(F)c12` [Example 81], the pEC50 is > 6.00.

Regarding `COc1cnc(-n2cncn2)c2[nH]cc(C(=O)C(=O)N3CCN(c4nccc5ccccc45)CC3)c12` [Example 36], the pEC50 is > 6.00.

Regarding `O=C(C(=O)N1CCN(c2nncc3ccccc23)CC1)c1c[nH]c2c(-n3ccnn3)ncc(F)c12` [Example 56], the pEC50 is > 6.00.

In the case of `COC(=O)Cc1n[nH]c(-c2ccc(OC)c3c(C(=O)C(=O)N4CCN(c5nccc6ccccc56)CC4)c[nH]c23)n1` [Example 32], the pEC50 was > 6.00.

In the case of `O=C(C(=O)N1CCN(c2ncnc3ccccc23)CC1)c1c[nH]c2c(-c3ccncc3)ncc(F)c12` [Example 79], the pEC50 is 5.30 to 6.00.

For the compound `COc1cnc(-n2ccnn2)c2[nH]cc(C(=O)C(=O)N3CCN(c4ncnc5ccccc45)CC3)c12` [Example 52], the negative logarithm of the EC50 (pEC50) was > 6.00.

Regarding `COc1ccc(-c2nnn(CC(N)=O)n2)c2[nH]cc(C(=O)C(=O)N3CCN(c4nccc5ccccc45)CC3)c12` [Example 29], the pEC50 is > 6.00.

With `COc1cnc(-n2cnc(C)n2)c2[nH]cc(C(=O)C(=O)N3CCN(c4nc(N)cc5ccccc45)CC3)c12` [Example 65], the pEC50 is > 6.00.

In the case of `O=C(C(=O)N1CCN(c2ncnc3ccccc23)CC1)c1c[nH]c2c(-c3ncon3)ccc(F)c12` [Example 3], the pEC50 is > 6.00.

Consider `COc1cnc(Cl)c2[nH]cc(C(=O)C(=O)N3CCN(c4ncnc5ccccc45)CC3)c12` [Example 75], for which the pEC50 is > 6.00.

For `COc1ccc(C#N)c2[nH]cc(C(=O)C(=O)N3CCN(c4ncnc5ccccc45)CC3)c12` [Example 44], the pEC50 was > 6.00.

Take `O=C(C(=O)N1CCN(c2nccc3ccccc23)CC1)c1c[nH]c2c(-c3nccs3)ccnc12` [Example 38]: the pEC50 was > 6.00.

Take `COc1ccc(-c2ncn[nH]2)c2[nH]cc(C(=O)C(=O)N3CCN(c4nccc5ccccc45)CC3)c12` [Example 21]: the pEC50 is > 6.00.

With `COc1cnc(-n2cnc(C)n2)c2[nH]cc(C(=O)C(=O)N3CCN(c4nnc(O)c5ccccc45)CC3)c12` [Example 58], the pEC50 was > 6.00.

For the compound `COc1cnc(C(=O)O)c2[nH]cc(C(=O)C(=O)N3CCN(c4ncnc5ccccc45)CC3)c12` [Example 50], the pEC50 was > 6.00.

As for `COc1cnc(-n2cnc(C(N)=O)n2)c2[nH]cc(C(=O)C(=O)N3CCN(c4ncnc5ccccc45)CC3)c12` [Example 70], the pEC50 is > 6.00.

For the compound `O=C(C(=O)N1CCN(c2nncc3ccccc23)CC1)c1c[nH]c2c(Br)ncc(F)c12` [Example 92], the negative-log EC50 (pEC50) was > 6.00.

As for `COc1ncc(-c2ncc(F)c3c(C(=O)C(=O)N4CCN(c5ncnc6ccccc56)CC4)c[nH]c23)cn1` [Example 82], the pEC50 is > 6.00.

As for `CCOC(=O)c1ccc(OC)c2c(C(=O)C(=O)N3CCN(c4nccc5ccccc45)CC3)c[nH]c12` [Example 13], the pEC50 is > 6.00.

As to `COc1cc(N2CCN(C(=O)C(=O)c3c[nH]c4c(-n5cncn5)ncc(OC)c34)CC2)c2cc(C)ccc2n1` [Example 86], the pEC50 is > 6.00.

Turning to `Cc1nc(N2CCN(C(=O)C(=O)c3c[nH]c4c(-n5ccnn5)ncc(F)c34)CC2)c2ccccc2n1` [Example 59], the pEC50 is > 6.00.

In the case of `O=C(C(=O)N1CCN(c2nncc3ccccc23)CC1)c1c[nH]c2c(-c3cn[nH]c3)ncc(F)c12` [Example 93], the pEC50 is > 6.00.

With `COc1cnc(C(N)=O)c2[nH]cc(C(=O)C(=O)N3CCN(c4ncnc5ccccc45)CC3)c12` [Example 49], the pEC50 was > 6.00.

Turning to `COc1ccc(C(N)=O)c2[nH]cc(C(=O)C(=O)N3CCN(c4nccc5ccccc45)CC3)c12` [Example 12], the pEC50 was > 6.00.

For `COc1ccc(C#N)c2[nH]cc(C(=O)C(=O)N3CCN(c4nccc5ccccc45)CC3)c12` [Example 43], the pEC50 is > 6.00.

As for `N=C(NNC(=O)c1ccccc1)c1ncc(F)c2c(C(=O)C(=O)N3CCN(c4nccc5ccccc45)CC3)c[nH]c12` [Example 89], the pEC50 is > 6.00.

Regarding `COc1ccc(-c2nn[nH]n2)c2[nH]cc(C(=O)C(=O)N3CCN(c4nccc5ccccc45)CC3)c12` [Example 15], the pEC50 is > 6.00.

On to `O=C(C(=O)N1CCN(c2nccc3ccoc23)CC1)c1c[nH]c2c(-c3ncon3)ccc(F)c12` [Example 2], for which the pEC50 was > 6.00.

Take `COc1ccc(-c2nc(CC(=O)O)n[nH]2)c2[nH]cc(C(=O)C(=O)N3CCN(c4nccc5ccccc45)CC3)c12` [Example 33]: the pEC50 is > 6.00.

Consider `COc1ccc(-c2nnn(C)n2)c2[nH]cc(C(=O)C(=O)N3CCN(c4nccc5ccccc45)CC3)c12` [Example 16], for which the pEC50 is > 6.00.

Consider `COc1cnc(-n2ccnn2)c2[nH]cc(C(=O)C(=O)N3CCN(c4nc(C)nc5ccccc45)CC3)c12` [Example 61], for which the pEC50 is > 6.00.

Take `O=C(C(=O)N1CCN(c2nccc3ccccc23)CC1)c1c[nH]c2c(-c3nc(-c4ccccc4)n[nH]3)ncc(F)c12` [Example 88]: the pEC50 is > 6.00.

Take `COc1nnc(N2CCN(C(=O)C(=O)c3c[nH]c4c(-n5cnc(C)n5)ncc(OC)c34)CC2)c2ccccc12` [Example 57]: the pEC50 is > 6.00.

As for `COc1cnc(-n2cncn2)c2[nH]cc(C(=O)C(=O)N3CCN(c4ccnc5ccccc45)CC3)c12` [Example 85], the pEC50 was > 6.00.

Turning to `COc1ccc(-n2ccnc2)c2[nH]cc(C(=O)C(=O)N3CCN(c4nccc5ccccc45)CC3)c12` [Example 5], the pEC50 was > 6.00.

Take `O=C(C(=O)N1CCN(c2nccc3ccccc23)CC1)c1c[nH]c2c(-c3ncon3)ccc(F)c12` [Example 1]: the pEC50 was > 6.00.

Regarding `COc1ccc(/C(N)=N\O)c2[nH]cc(C(=O)C(=O)N3CCN(c4nccc5ccccc45)CC3)c12` [Example 14], the pEC50 was > 6.00.

Consider `COc1ccc(-c2cnccn2)c2[nH]cc(C(=O)C(=O)N3CCN(c4nccc5ccccc45)CC3)c12` [Example 30], for which the pEC50 is > 6.00.

As to `COc1cnc(C#N)c2[nH]cc(C(=O)C(=O)N3CCN(c4nccc5ccccc45)CC3)c12` [Example 7], the pEC50 was > 6.00.

Consider `COc1cnc(C#N)c2[nH]cc(C(=O)C(=O)N3CCN(c4ncnc5ccccc45)CC3)c12` [Example 45], for which the pEC50 is > 6.00.

Take `COc1cnc(-n2cnc(C)n2)c2[nH]cc(C(=O)C(=O)N3CCN(c4ccc5ccccc5n4)CC3)c12` [Example 90]: the pEC50 was > 6.00.

`COc1cnc(-n2cnc(C#N)n2)c2[nH]cc(C(=O)C(=O)N3CCN(c4ncnc5ccccc45)CC3)c12` [Example 69]: the pEC50 was > 6.00.

Turning to `O=C(C(=O)N1CCN(c2ccc3ccccc3n2)CC1)c1c[nH]c2c(-n3ccnn3)ncc(F)c12` [Example 91], the pEC50 was > 6.00.

As for `COC(=O)Cn1nnc(-c2ccc(OC)c3c(C(=O)C(=O)N4CCN(c5nccc6ccccc56)CC4)c[nH]c23)n1` [Example 26], the pEC50 is > 6.00.

`COc1ccc(C(=N)NC2CC2)c2[nH]cc(C(=O)C(=O)N3CCN(c4nccc5ccccc45)CC3)c12` [Example 18]: the pEC50 was > 6.00.

For the compound `COc1ccc(-c2nc(-c3cccnc3)n[nH]2)c2[nH]cc(C(=O)C(=O)N3CCN(c4nccc5ccccc45)CC3)c12` [Example 22], the pEC50 is > 6.00.

Consider `COc1ccc(-c2nc(C)n[nH]2)c2[nH]cc(C(=O)C(=O)N3CCN(c4nccc5ccccc45)CC3)c12` [Example 11], for which the pEC50 is > 6.00.

As for `COc1ccc(Br)c2[nH]cc(C(=O)C(=O)N3CCN(c4nccc5ccccc45)CC3)c12` [Example 4], the pEC50 is > 6.00.

Turning to `COc1cnc(-n2cnc(C)n2)c2[nH]cc(C(=O)C(=O)N3CCN(c4nc(C)nc5ccccc45)CC3)c12` [Example 60], the pEC50 was > 6.00.

Regarding `COc1cnc(-n2cnc(C)n2)c2[nH]cc(C(=O)C(=O)N3CCN(c4nc(Cl)cc5ccccc45)CC3)c12` [Example 66], the pEC50 is > 6.00.

As for `COc1cnc(-n2ccnn2)c2[nH]cc(C(=O)C(=O)N3CCN(c4nncc5ccccc45)CC3)c12` [Example 54], the pEC50 is > 6.00.

Take `COc1cnc(-n2nccn2)c2[nH]cc(C(=O)C(=O)N3CCN(c4ncnc5ccccc45)CC3)c12` [Example 51]: the pEC50 was > 6.00.

For the compound `N#Cc1ncc(F)c2c(C(=O)C(=O)N3CCN(c4nccc5ccccc45)CC3)c[nH]c12` [Example 87], the pEC50 is > 6.00.
